Measured values from patent publication US10787430B2, “Hemoglobin modifier compounds and uses thereof” (FronThera U.S. Pharmaceuticals LLC, priority 2016, dated 2020).
Where a name gives a salt, the structure may show the parent alone. Read-outs that look alike come from different tables or passages of the source.

Key:
[1] = Pharmacokinetic study in rats (plasma and red blood cell); type: in vivo; details: male, Sprague-Dawley, rat, oral, 7.2 mg/kg
Description: Rats (Sprague-Dawley, male, 220-280 g) were dosed with GBT-440 (HCl salt) and one of three compounds corresponding to Example 27, 29, and 38. The rats received oral (7.2 mpk) doses of the compound. Rats were fasted overnight before the experiments and provided with food four hours after dosing. The oral dosing formulations was prepared as follows: approximately 10 mg of compound was weighed precisely to an appropriate size of container, to which was added 2 mL of vehicle 0.5% methylcellulose in water and 8 μL 0.5% sodium dodecyl sulfate. The mixture was then transferred into a glass vial, and volume adjusted to appropriate volume with 0.5% methylcellulose to obtain a final concentration of 0.72 mg·mL^−1, and then vortexed and sonicated briefly.
Whole blood sample collection: Blood samples ([…]) were collected at pre-dose, 15, 30 min, 1, 2, 4, 8, 12 and 24 h via jugular vein into tubes and anticoagulated with 3.2% TSC (trisodium citrate). The proportion of anticoagulant and blood was 1:9 (v/v). The sampling time was recorded accordingly. The tubes were gently inverted several times to ensure mixing. Then 10 μL doses of whole blood sample was transferred to a new EP tube and duplicated in wet ice.
Plasma sample collection: The remaining whole blood was processed by centrifugation at 5,500 rpm for 10 min. The supernate was collected. All these whole blood and plasma samples were kept below −20° C. for 1 h prior to analysis.
(§1) Plasma sample preparation: An aliquot of 20 μL of sample was transferred to sample treatment tube (1.5 mL EP tube), and then 100 μL ACN (0.5% FA) containing Verapamil, 5 ng·mL^−1 and Glibenclamide, 50 ng·mL^−1 for protein precipitation was added. The mixture was vortexed for 30 min, and then centrifuged at 13000 rpm for 5 min at room temperature. After that, 70 μL of supernatant was transferred to a 96-Well Plate, to which 70 μL of water added and then vortexed for 10 min at room temperature. An aliquot of 10 μL of this mixture was analyzied using LC-MS/MS.
as §1, with “Whole blood” for “Plasma”, “10” for “20”, “500” for “100”, “water was” for “water”, “analyzed” for “analyzied”
Plasma and red blood cell concentration-time data were processed by linear regression analysis. All pharmacokinetic parameters were calculated using non-compartment model of Pharsight Phoenix 6.3.
Red blood cell concentrations were calculated according to the method below: Mass balance equation: Cb·VB=Cp·Vp+CBC·VBC Where, Cb=Concentration of whole blood; VB=Volume of whole blood; Cp=Concentration of plasma; Vp=Volume of plasma; CBC=Concentration of blood cell; VBC=Volume of blood cell. VBC=H·VB, where H is the hematocrit number. Vp=(1−H)·VB

[2] = Solubility in JP1, JP2 and FaSSIF buffers; type: physicochemical; details: 25 °C, thermodynamic from solid, room temperature
Description: Conditions: 1. JP1 buffer (84 mM HCl, 34.22 mM NaCl, pH 1.2); 2. JP2 buffer (50 mM phosphate buffer at pH 6.8); 3. FaSSIF buffer, pH 6.5 (Preparation: In about 0.9 L of purified water dissolve 0.420 g of NaOH (pellets), 4.470 g of NaH2PO4 (dihydrate), 6.186 g of NaCl; Adjust the pH to 6.5 with Sodium hydroxide 1N or Hydrochloric acid 1N, to make up to volume (1 L) with purified water at room temperature; Add 0.224 g of SIF Powder Original to about 0.5 L of pH 6.5 blank buffer and stir until powder is completely dissolved; Let stand for 2 hour. FaSSIF buffer is now ready to use.
Procedures: 1. accurately weighed about 2 mg test compounds and controls in whatman vials, then transferred 450 μL buffer in to the vials; 2. Filter pistons of miniuniprep vials were placed and compressed to the position of the liquid level to allow for contact. Vortexed for 2 minutes; 3. […] Miniunipreps were compressed to prepare the filtrates for injection into HPLC system; 5. Diluted the filtrates with buffer by a factor of 50 fold to make diluents; 6. Determined the test compound concentration of the diluents and filtrates using HPLC-UV.

[3] = red blood cells, red blood cell (calculated by mass balance from whole blood and plasma), read-out: AUC0-24 h RBC
[4] = red blood cells, red blood cell (calculated by mass balance from whole blood and plasma), read-out: Cmax RBC
[5] = red blood cells, red blood cell, read-out: T1/2 RBC (converted)
[6] = plasma, read-out: AUC0-24 h Plasma
[7] = plasma, read-out: T1/2 Plasma (converted)
[8] = aqueous buffer, JP2 buffer (50 mM phosphate) pH 6.8, 24 hr, read-out: JP2 Solubility
[9] = simulated gastric fluid, JP1 buffer pH 1.2, 24 hr, read-out: JP1 Solubility
[10] = FaSSIF buffer pH 6.5, 24 hr, read-out: FaSSIF Solubility

AUC(0-t) [1, 3] [µg·h/mL] | Cmax [1, 4] [µg/mL] | half-life [1, 5] [h] | AUC(0-t) [1, 6] [µg·h/mL] | Cmax ([1]; plasma, read-out: Cmax Plasma) [µg/mL] | half-life [1, 7] [h] | solubility at 24 h [2, 8] [µg/mL] | solubility at 24 h [2, 9] [µg/mL] | solubility at 24 h [2, 10] [µg/mL] | SMILES
566 | 50.3 | 26 | 10.7 | 0.742 | 18 | 8.16 | 623 | 35.7 | Cl.[2H]C([2H])(Oc1cc(F)cc(O)c1C=O)c1cccnc1-c1ccnn1C(C)C [Example 27, 4-fluoro-2-hydroxy-6-((2-(1-isopropyl-1H-pyrazol-5-yl)pyridin-3-yl)methoxy-d2)benzaldehyde hydrochloric acid]
12000 | 1240 | 10 | 42.6 | 4.01 | 12 | 74.4 | > 4440 | 591 | Cl.[2H]C([2H])(Oc1cccc(O)c1C=O)c1cccnc1-n1ccnc1C(C)C [Example 29, 2-hydroxy-6-((2-(2-isopropyl-1H-imidazol-1-yl)pyridin-3-yl)methoxy-d2)benzaldehyde hydrochloric acid]
3440 | 216 | 17 | 22.8 | 2.15 | 19 | 28 | 986 | 95.7 | CC(C)n1nccc1-c1ncccc1COc1cccc(O)c1C=O [GBT-440 (HCl salt), reference compound]
